Experimental data published in patent publication US12527774B2, “Estrogen-related receptor alpha modulators” (LEAD PHARMA HOLDING B.V., priority 2019, dated 2026).

Molecular target: ERRα ligand binding domain (ERRα-LBD) (Homo sapiens (Human), UniProt P11474)
Test: ERRα AlphaScreen Assay
Format: biochemical
Conditions: disruption of binding of ERRα-LBD protein to biotin-PGC1α-3 co-activator peptide; for IC50: read-out: mean pIC50 (converted)
Summary of the method: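 His-SUMO-tagged ERRα-LBD from E. coli (0.81 nM) preincubated 1 h at room temperature with compound, streptavidin donor and Ni-chelate acceptor beads (10 μg/mL each), then 2 h with 15 nM biotin-PGC1α-3 peptide (aa 202–220). Buffer: 50 mM Tris-HCl pH 7.5, 100 mM NaCl, 5 mM TCEP, 1% DMSO. Four-parameter IC50; mean pIC50 of replicate values.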

Chain of ERRα ligand binding domain (ERRα-LBD) (P11474 193-421): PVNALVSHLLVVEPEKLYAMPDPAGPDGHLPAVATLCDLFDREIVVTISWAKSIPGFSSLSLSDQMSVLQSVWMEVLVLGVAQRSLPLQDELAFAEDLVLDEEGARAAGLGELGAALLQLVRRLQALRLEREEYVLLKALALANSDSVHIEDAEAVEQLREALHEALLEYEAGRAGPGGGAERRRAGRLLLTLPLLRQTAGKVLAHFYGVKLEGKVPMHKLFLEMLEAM

Structure (SMILES): COc1cc(C2CC(=O)Nc3n[nH]cc32)ccc1OCc1cc(Cl)ccc1Cl (centres unmarked) [Example 29, 4-{4-[(2,5-dichlorophenyl)methoxy]-3-methoxyphenyl}-2H,4H,5H,6H, 7H-pyrazolo[3,4-b]pyridin-6-one]
- IC50: 100 to 1000 nM

Structure (SMILES): COc1ccc([N+](=O)[O-])cc1COc1ccc(C2CC(=O)Nc3n[nH]cc32)cc1OC (centres unmarked) [Example 25, 4-{3-methoxy-4-[(2-methoxy-5-nitrophenyl)methoxy]phenyl}-2H,4H,5H,6H,7H-pyrazolo[3,4-b]pyridin-6-one]
- IC50: 100 to 1000 nM

Structure (SMILES): CCCCOC(=O)c1ccccc1COc1ccc(C2CC(=O)Nc3n[nH]cc32)cc1OC (centres unmarked) [Example 126, butyl 2-(2-methoxy-4-{6-oxo-2H,4H,5H,6H,7H-pyrazolo[3,4-b]pyridin-4-yl}phenoxymethyl)benzoate]
- IC50: 100 to 1000 nM

Structure (SMILES): COc1cc(C2CC(=O)Nc3n[nH]cc32)ccc1COc1ccc(Cl)cc1C(F)(F)F (single isomer, unassigned; (+)) [Example 193, (+)-4-(4-{[4-chloro-2-(trifluoromethyl)phenoxy]methyl}-3-methoxyphenyl)-2H,4H,5H,6H,7H-pyrazolo[3,4-b]pyridin-6-one]
- IC50: 10 to 100 nM

Structure (SMILES): O=C1CC(c2ccc(COc3ccc(F)cc3C(F)(F)F)c(OC(F)(F)F)c2)c2c[nH]nc2N1 (centres unmarked) [Example 110, 4-(4-{[4-fluoro-2-(trifluoromethyl)phenoxy]methyl}-3-(trifluoromethoxy)phenyl)-2H,4H,5H,6H, 7H-pyrazolo[3,4-b]pyridin-6-one]
- IC50: 100 to 1000 nM

Structure (SMILES): COc1ccc(COc2ccc(C3CC(=O)Nc4c[nH]nc43)cc2OC)c(C(F)(F)F)c1 (centres unmarked) [Example 92, 7-(3-methoxy-4-{[4-methoxy-2-(trifluoromethyl)phenyl]methoxy}phenyl)-2H,4H,5H,6H,7H-pyrazolo[4,3-b]pyridin-5-one]
- IC50: 10 to 100 nM

Structure (SMILES): COc1cc(C2CC(=O)Nc3n[nH]cc32)ccc1COc1cc(C)cc(C(F)(F)F)c1 (centres unmarked) [Example 114, 4-(3-methoxy-4-{[3-methyl-5-(trifluoromethyl)phenoxy]methyl}phenyl)-2H,4H,5H,6H,7H-pyrazolo[3,4-b]pyridin-6-one]
- IC50: 100 to 1000 nM

Structure (SMILES): O=C1CC(c2cnc(OCc3ccccc3C(F)(F)F)nc2)c2c[nH]nc2N1 (centres unmarked) [Example 165, 4-(2-{[2-(trifluoromethyl)phenyl]methoxy}pyrimidin-5-yl)-2H,4H,5H,6H, 7H-pyrazolo[3,4-b]pyridin-6-one]
- IC50: 100 to 1000 nM

Structure (SMILES): COc1cc(C2CC(=O)Nc3n[nH]cc32)ccc1OCc1cccc(C(F)(F)F)c1F (centres unmarked) [Example 28, 4-(4-{[2-fluoro-3-(trifluoromethyl)phenyl]methoxy}-3-methoxyphenyl)-2H,4H,5H,6H,7H-pyrazolo[3,4-b]pyridin-6-one]
- IC50: 100 to 1000 nM

Structure (SMILES): COc1ccc([N+](=O)[O-])cc1COc1ccc(-c2cc(=O)[nH]c3n[nH]cc23)cc1OC [Example 182, 4-{3-methoxy-4-[(2-methoxy-5-nitrophenyl)methoxy]phenyl}-2H,6H,7H-pyrazolo[3,4-b]pyridin-6-one]
- IC50: 10 to 100 nM

Structure (SMILES): O=C1CC(c2ccc(OCc3ccccc3Cl)cc2)c2c[nH]nc2N1 (centres unmarked) [Example 60, 4-{4-[(2-chlorophenyl)methoxy]phenyl}-2H,4H,5H,6H,7H-pyrazolo[3,4-b]pyridin-6-one]
- IC50: 100 to 1000 nM

Structure (SMILES): COc1cc(C2CC(=O)Nc3c[nH]nc32)ccc1OCc1ccc(N)cc1C(F)(F)F (centres unmarked) [Example 137, 7-(4-{[4-amino-2-(trifluoromethyl)phenyl]methoxy}-3-methoxyphenyl)-2H,4H,5H,6H, 7H-pyrazolo[4,3-b]pyridin-5-one]
- IC50: 100 to 1000 nM

Structure (SMILES): COc1cc(C2CC(=O)Nc3c[nH]nc32)ccc1OCc1ccc(CCO)cc1C(F)(F)F (centres unmarked) [Example 156, 7-(4-{[4-(2-hydroxyethyl)-2-(trifluoromethyl)phenyl]methoxy}-3-methoxyphenyl)-2H,4H,5H,6H, 7H-pyrazolo[4,3-b]pyridin-5-one]
- IC50: 10 to 100 nM

Structure (SMILES): COc1cc(C2CC(=O)N(C)c3n[nH]cc32)ccc1OCc1ccccc1C(F)(F)F (centres unmarked) [Example 86, 4-(3-methoxy-4-{[2-(trifluoromethyl)phenyl]methoxy}phenyl)-7-methyl-2H,4H,5H,6H,7H-pyrazolo[3,4-b]pyridin-6-one]
- IC50: 100 to 1000 nM

Structure (SMILES): COc1cc(C2CC(=O)Nc3n[nH]cc32)ccc1COc1ccc(C(F)F)cc1C(F)(F)F (single isomer, unassigned; (+)) [Example 195, (+)-4-(4-{[4-(difluoromethyl)-2-(trifluoromethyl)phenoxy]methyl}-3-methoxyphenyl)-2H,4H,5H,6H,7H-pyrazolo[3,4-b]pyridin-6-one]
- IC50: 10 to 100 nM

Structure (SMILES): COc1cc(C2CC(=O)Nc3n[nH]cc32)ccc1OCc1ccncc1C(F)(F)F (centres unmarked) [Example 50, 4-(3-methoxy-4-{[3-(trifluoromethyl)pyridin-4-yl]methoxy}phenyl)-2H,4H,5H,6H,7H-pyrazolo[3,4-b]pyridin-6-one]
- IC50: 100 to 1000 nM

Structure (SMILES): COc1cc(C2CC(=O)Nc3n[nH]cc32)ccc1OCc1ccccc1[N+](=O)[O-] (centres unmarked) [Example 18, 4-{3-methoxy-4-[(2-nitrophenyl)methoxy]phenyl}-2H,4H,5H,6H, 7H-pyrazolo[3,4-b]pyridin-6-one]
- IC50: 100 to 1000 nM

Structure (SMILES): COc1cc(C2CC(=O)Nc3n[nH]cc32)cc(F)c1OCc1ccccc1C(F)(F)F (centres unmarked) [Example 78, 4-(3-fluoro-5-methoxy-4-{[2-(trifluoromethyl)phenyl]methoxy}phenyl)-2H,4H,5H,6H, 7H-pyrazolo[3,4-b]pyridin-6-one]
- IC50: 100 to 1000 nM

Structure (SMILES): O=C1CC(c2ccc(OCc3ccccc3C(F)(F)F)c(C(=O)Nc3nnc[nH]3)c2)c2c[nH]nc2N1 (centres unmarked) [Example 131, 5-{6-oxo-2H, 4H,5H, 6H, 7H-pyrazolo[3,4-b]pyridin-4-yl}-N-(4H-1,2,4-triazol-3-yl)-2-{[2-(trifluoromethyl)phenyl]methoxy}benzamide]
- IC50: 100 to 1000 nM

Structure (SMILES): COc1ccc(COc2ccc(C3CC(=O)Nc4[nH]nnc43)cc2OC)c(C(F)(F)F)c1 (single isomer, unassigned; (+)) [Example 201, (+)-7-(3-methoxy-4-{[4-methoxy-2-(trifluoromethyl)phenyl]methoxy}phenyl)-3H,4H,5H,6H,7H-[1,2,3]triazolo[4,5-b]pyridin-5-one]
- IC50: 10 to 100 nM

Structure (SMILES): COc1cc(C2CC(=O)Nc3n[nH]cc32)ccc1OCc1ccc(N)cc1C(F)(F)F (centres unmarked) [Example 135, 4-(4-{[4-amino-2-(trifluoromethyl)phenyl]methoxy}-3-methoxyphenyl)-2H,4H,5H,6H, 7H-pyrazolo[3,4-b]pyridin-6-one]
- mean pIC50: ≥ 8

Structure (SMILES): COc1cc(C2CC(=O)Nc3n[nH]cc32)c(F)cc1OCc1cccc(F)c1C(F)(F)F (centres unmarked) [Example 77, 4-(2-fluoro-4-{[3-fluoro-2-(trifluoromethyl)phenyl]methoxy}-5-methoxyphenyl)-2H,4H,5H,6H,7H-pyrazolo[3,4-b]pyridin-6-one]
- IC50: 100 to 1000 nM

Structure (SMILES): COc1cc(C2CC(=O)Nc3n[nH]cc32)ccc1COc1ccc(C)cc1C (centres unmarked) [Example 111, 4-{4-[(2,4-dimethylphenoxy)methyl]-3-methoxyphenyl}-2H,4H,5H,6H,7H-pyrazolo[3,4-b]pyridin-6-one]
- IC50: 10 to 100 nM

Structure (SMILES): COc1cc(C2CC(=O)Nc3c[nH]nc32)ccc1OCc1ccc(C(C)=O)cc1C(F)(F)F (centres unmarked) [Example 94, 7-(4-{[4-acetyl-2-(trifluoromethyl)phenyl]methoxy}-3-methoxyphenyl)-2H,4H,5H,6H, 7H-pyrazolo[4,3-b]pyridin-5-one]
- IC50: 100 to 1000 nM

Structure (SMILES): COC(=O)c1ccc(COc2ccc(C3CC(=O)Nc4n[nH]cc43)cc2OC)c(C(F)(F)F)c1 (centres unmarked) [Example 42, methyl 4-[(2-methoxy-4-{6-oxo-2H,4H,5H,6H,7H-pyrazolo[3,4-b]pyridin-4-yl}phenoxy)methyl]-3-(trifluoromethyl)benzoate]
- mean pIC50: ≥ 8

Structure (SMILES): COc1cc(C2CC(=O)Nc3n[nH]cc32)ccc1OCc1ccccc1I (centres unmarked) [Example 23, 4-{4-[(2-iodophenyl)methoxy]-3-methoxyphenyl}-2H,4H,5H,6H, 7H-pyrazolo[3,4-b]pyridin-6-one]
- mean pIC50: ≥ 8

Structure (SMILES): COc1cc(OCc2ccccc2C(F)(F)F)ccc1C1CC(=O)Nc2n[nH]cc21 (centres unmarked) [Example 64, 4-(2-methoxy-4-{[2-(trifluoromethyl)phenyl]methoxy}phenyl)-2H,4H,5H,6H,7H-pyrazolo[3,4-b]pyridin-6-one]
- IC50: 10 to 100 nM

Structure (SMILES): COc1cc(C2CC(=O)Nc3n[nH]cc32)ccc1OCc1ccc(N(C)C)cc1C(F)(F)F (centres unmarked) [Example 138, 4-(4-{[4-(dimethylamino)-2-(trifluoromethyl)phenyl]methoxy}-3-methoxyphenyl)-2H,4H,5H,6H, 7H-pyrazolo[3,4-b]pyridin-6-one]
- mean pIC50: ≥ 8

Structure (SMILES): COc1cc(C2CC(=O)Nc3n[nH]cc32)ccc1COc1ccc(C(F)F)cc1C(F)F (single isomer, unassigned; (-)) [Example 218, (−)-4-(4-{[2,4-bis(difluoromethyl)phenoxy]methyl}-3-methoxyphenyl)-2H,4H,5H,6H,7H-pyrazolo[3,4-b]pyridin-6-one]
- mean pIC50: ≥ 8

Structure (SMILES): COc1cc(C2CC(=O)Nc3ccsc32)ccc1OCc1ccccc1C(F)(F)F (centres unmarked) [Example 85, 7-(3-methoxy-4-{[2-(trifluoromethyl)phenyl]methoxy}phenyl)-4H,5H,6H, 7H-thieno[3,2-b]pyridin-5-one]
- IC50: 10 to 100 nM

Structure (SMILES): COCCCOc1cc(C2CC(=O)Nc3n[nH]cc32)ccc1OCc1ccccc1C(F)(F)F (centres unmarked) [Example 163, 4-[3-(3-methoxypropoxy)-4-{[2-(trifluoromethyl)phenyl]methoxy}phenyl]-2H,4H,5H,6H,7H-pyrazolo[3,4-b]pyridin-6-one]
- IC50: 10 to 100 nM

Structure (SMILES): COc1cc(C2CC(=O)Nc3n[nH]cc32)ccc1OCc1ccc([N+](=O)[O-])cc1C(F)(F)F (centres unmarked) [Example 34, 4-(3-methoxy-4-{[4-nitro-2-(trifluoromethyl)phenyl]methoxy}phenyl)-2H,4H,5H,6H,7H-pyrazolo[3,4-b]pyridin-6-one]
- IC50: 10 to 100 nM
